The text below walks through data of patent publication US8163755B2, “Hexahydrooxazinopterine compounds” (Takeda Pharmaceutical Company Limited, priority 2009, dated 2012).

SMILES strings stand for the structures. pIC50: −log10 of the molar value. Counter-ions that a name gives are not always drawn.

The experiment has as its target T1, human mTOR (Homo sapiens, UniProt P42345).
T1 construct: purchased Invitrogen
The experiment is described as follows: Inhibition of mTOR (Example A, LanthaScreen TR-FRET, GFP-4E-BP1 substrate). Conditions: inhibition of human mTOR in the assay of Example A. It counts as biochemical. The procedure: Example A Inhibition of mTOR
Purified mTOR are purchased from Invitrogen. mTOR activity was determined using Invitrogen's LanthaScreen system. The inhibitory properties of compounds relative to mTOR may be determined using a black 384-well-plate format in the following buffer 50 mM Hepes, 10 mM NaCl, 10 mM MgCl2, 0.2 mM EDTA, 0.01% Brij35, 2 mM DTT at pH7.3. The test compound is prepared in DMSO using 2 fold serial dilutions for 11 data points which are added to the buffer so that each dilution contains 3% DMSO.
An Assay for mTOR Inhibition is as Follows:
Combine in each well 2 μl of 1.2 μM GFP-4E-BP1 (Invitrogen) and 150 μM ATP (in buffer), 2 μl of diluted test compound (3% DMSO in buffer), and 2 μl of 6 nM mTor in buffer. The reaction mixture is then incubated at room temperature for 30 min, and quenched by adding 40 mM ETDA with 4 nM Tb-anti-p4E-BP1 [pThr46] antibody in TR-FRET dilution buffer (Invitrogen). The plate is kept at room temperature for 1 hour and then read using PheraStar (BMG labtech) LanthaScreen mode.
pIC50 values, the negative of the log of the IC50, are calculated by non-linear curve fitting of the compound concentrations and percent of inhibition to the standard pIC50 equation.
Compound `CNC(=O)Nc1ccc(-c2ncc3c(n2)N2CCOCC2(C)C(=O)N3Cc2ccn(C)n2)cc1` (centres unmarked) [Example 11, 1-methyl-3-(4-(6a-methyl-5-((1-methyl-1H-pyrazol-3-yl)methyl)-6-oxo-5,6,6a,7,9,10-hexahydro-[1,4]oxazino[3,4-h]pteridin-2-yl)phenyl)urea] showed a pIC50 of 6.00 to 7.50.
The compound `CNC(=O)Nc1ccc(-c2ncc3c(n2)N2CCOC[C@@]2(C)C(=O)N3C2CCOCC2)cc1` [Example 26, (S)-1-methyl-3-(4-(6a-methyl-6-oxo-5-(tetrahydro-2H-pyran-4-yl)-5,6,6a,7,9,10-hexahydro-[1,4]oxazino[3,4-h]pteridin-2-yl)phenyl)urea] showed a pIC50 greater than 7.50.
Take `CNC(=O)Nc1ccc(-c2ncc3c(n2)N2CCOC[C@@]2(C)C(=O)N3C[C@H](O)CO)cc1` [Example 23]: the negative-log IC50 (pIC50) was 6.00 to 7.50.
In turn, `CC12COCCN1c1nc(-c3ccc(NC(=O)NC4CC4)cc3)ncc1N(CC1CC1)C2=O` (centres unmarked) [Example 6, 1-cyclopropyl-3-(4-(5-(cyclopropylmethyl)-6a-methyl-6-oxo-5,6,6a,7,9,10-hexahydro-[1,4]oxazino[3,4-h]pteridin-2-yl)phenyl)urea, TFA salt] showed a negative-log IC50 (pIC50) of 6.00 to 7.50.
`CNC(=O)Nc1ccc(-c2ncc3c(n2)N2CCOCC2(C)C(=O)N3CC2CC2)cc1` (centres unmarked) [Example 1, 1-(4-(5-(cyclopropylmethyl)-6a-methyl-6-oxo-5,6,6a,7,9,10-hexahydro-[1,4]oxazino[3,4-h]pteridin-2-yl)phenyl)-3-methylurea] showed a negative logarithm of the IC50 (pIC50) greater than 7.50.
